Values quoted from earlier work, collected in patent US4380639A, “Substituted 1,2,5-thiadiazole derivatives” (Bristol-Myers Company, priority 1981, dated 1983).

Experiments:
[1] = in vivo
[2] = system: H2 -receptor
[3] = system: peptic ulcer disease; settings: clinical evaluation, Gray et al., Lancet 1977

Row | oral absorption [1] | SMILES | H2 -antagonist potency/effectiveness relative to comparator [2] | therapeutic effectiveness in peptic ulcer disease [3]
1 | oral absorption is poor | CNC(=S)NCCCCc1cnc[nH]1 [Burimamide] |  | 
2 |  | CNC(=NC#N)NCCSCc1[nH]cnc1C [Cimetidine] | as effective an H2 -antagonist as metiamide | effective therapeutic agent in the treatment of peptic ulcer disease
3 |  | CNC(=S)NCCSCc1[nH]cnc1C [Metiamide] | more potent than burimamide | 
